The source made the active and inactive calls. The calls are words filed in the database; no cut-off is given here.
How the values were obtained:
[1] = test system: SKNO-1; assay: Effect on STAT1 level in human SKNO-1 cells upto 5 uM measured for 18 hrs by Western blot analysis; type: functional, cell-based
[2] = target: T1, Signal transducer and activator of transcription 5A (Homo sapiens, UniProt P42229); assay: Induction of STAT5 degradation in human MV4-11 cells assessed as reduction in phosphorylated STAT5 level measured for 6 hrs by immunoblotting analysis; type: cell-based
T1 sequence (P42229 whole entry): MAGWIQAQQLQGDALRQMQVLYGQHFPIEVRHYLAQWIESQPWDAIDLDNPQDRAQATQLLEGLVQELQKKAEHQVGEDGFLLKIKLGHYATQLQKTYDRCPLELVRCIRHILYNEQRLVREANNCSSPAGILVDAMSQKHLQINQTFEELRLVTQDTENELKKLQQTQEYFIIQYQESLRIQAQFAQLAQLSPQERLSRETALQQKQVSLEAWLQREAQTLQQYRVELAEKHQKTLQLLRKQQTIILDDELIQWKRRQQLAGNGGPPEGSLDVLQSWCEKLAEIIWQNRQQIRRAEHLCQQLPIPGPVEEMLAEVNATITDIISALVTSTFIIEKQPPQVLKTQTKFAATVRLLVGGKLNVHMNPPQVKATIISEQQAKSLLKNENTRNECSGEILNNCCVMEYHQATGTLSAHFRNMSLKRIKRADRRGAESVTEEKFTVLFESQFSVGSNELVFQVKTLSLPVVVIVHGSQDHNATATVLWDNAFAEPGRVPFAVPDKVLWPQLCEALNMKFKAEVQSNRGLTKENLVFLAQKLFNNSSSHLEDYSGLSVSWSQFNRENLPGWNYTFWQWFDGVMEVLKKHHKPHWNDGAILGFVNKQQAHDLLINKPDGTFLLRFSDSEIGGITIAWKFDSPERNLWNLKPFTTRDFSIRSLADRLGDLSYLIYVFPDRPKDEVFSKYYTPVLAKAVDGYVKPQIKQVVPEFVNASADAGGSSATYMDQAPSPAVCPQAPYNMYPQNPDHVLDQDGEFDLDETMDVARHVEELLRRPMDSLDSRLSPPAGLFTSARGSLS

[3] = test system: RS4-11; assay: Antiproliferative activity against human RS4-11 cells assessed as cell growth inhibition measured for 4 days by celltiter-glo assay; settings: RS4-11, 96 h
[4] = Toxicity in SCID mouse assessed as effect on sign of illness at 50 to 200 mg/kg, ip administered 5 days a week for 3 weeks; type: organism-based; settings: in vivo, 120 h, dose 50-200 mg/kg, time 5 day
[5] = test system: MV4-11; assay: Antiproliferative activity against human MV4-11 cells assessed as maximal cell growth inhibition measured for 4 days by celltiter-glo assay relative to control; type: functional; settings: time 4 day
[6] = test system: RS4-11; assay: Antiproliferative activity against human RS4-11 cells assessed as maximal cell growth inhibition measured for 4 days by celltiter-glo assay relative to control; type: functional; settings: time 4 day
[7] = test system: SKNO-1; assay: Effect on STAT6 level in human SKNO-1 cells upto 5 uM measured for 18 hrs by Western blot analysis; type: functional, cell-based
[8] = test system: MV4-11; assay: Antitumor activity against human MV4-11 cells xenografted in SCID mouse assessed as tumor growth inhibition at 50 mg/kg, ip administered 5 days a week for 3 weeks; type: functional; settings: MV4-11, 504 h, read-out: TGI
[9] = Antiproliferative activity against human OCI-M2 cells assessed as maximal cell growth inhibition measured for 4 days by celltiter-glo assay relative to control; type: functional; settings: time 4 day
[10] = Antiproliferative activity against human OCI-M2 cells assessed as cell growth inhibition measured for 4 days by celltiter-glo assay; settings: OCI-M2, 96 h

For `CN(CCCC#Cc1cccc2c1CN(C1CCC(=O)NC1=O)C2=O)C(=O)CCN(C(=O)[C@@H]1CCCN1C(=O)[C@@H](NC(=O)c1cc2cc(C(F)(F)P(=O)(O)O)ccc2s1)C(C)(C)C)c1ccc(-c2nccs2)cc1` (stereo not given in full), the Activity [1] was “inactive”, the DC50 [2] was 0.06 µM and the IC50 [3] was greater than 15 µM. For the same compound, the Activity [4] was “Non-Toxic”, the Imax [5] was 65% and the Imax [6] was less than 5%. For the same compound, the Activity [7] was “inactive”, the inhibition in vivo at 50 mg/kg [8] was 50% and the Imax [9] was less than 5%. It also gave an IC50 [10] greater than 15 µM.
